Here are results for 9 molecules from patent publication US7829552B2, “Phosphorus-containing thyromimetics” (Metabasis Therapeutics, Inc., priority 2003, dated 2010).

What is called Ki is the equilibrium dissociation constant of an inhibitor or competing ligand from its target.

Structures are written as SMILES.

Data set [1] relates to Hypercholesterolemic rats. The experiment in a line: Cholesterol lowering in hypercholesterolemic (cholesterol-fed) rats. Format: in vivo, rat. To be noted: for cholesterol lowering: hypercholesterolemic rats, 0.5 mg/kg/d orally; for efficacy in lowering cholesterol: another experiment, dose and route not given. How it is done: Plasma cholesterol values were assessed prior to and following treatment and the effects of compound were expressed as a percentage change from the pre-dose cholesterol levels. […] Compounds were routinely tested for oral efficacy at a dose of 0.5 mg/kg/d. Hypercholesterolemic rats were treated with vehicle, Compound 13-1-cis (a HepDirect version of Compound 7), Compound 19-1 (a diethyl ester of Compound 19-2), Compound 13-9 (a HepDirect version of Compound 19-2), Compound 12-5 (a bisPom version of compound 19-2), or Compound 15-5 (a bisamidate version of Compound 19-2) at 0.5 mg/kg/d orally. Compound 13-1-cis has been extensively characterized and was used as the positive control for the assay.

Data set [2] relates to Normal rats. The experiment in a line: Hepatic triglyceride content in normal rats chronically infused for 7 days. Format: in vivo, rat. As to the method:
Normal rats were chronically infused with Compound 7 for 7 days. Liver triglycerides were analyzed following lipid extraction by the Bligh Dyer method (Bligh E G and Dyer W J, A rapid method of total lipid extraction and purification. Can J Med. Sci. 1959 (August); 37(8):911-7, incorporated herein by reference). Total triglycerides were analyzed in the liver extracts by an enzymatic assay (Thermo Electron Corporation). Total lipid was normalized to initial liver weight and triglyceride content was normalized to liver weight. […] There was a 4% reduction in liver triglycerides for this group and the results were not statistically significant.

In data set [3] the test system is Normal rats (Sprague-Dawley). The data set can be described thus: Subacute studies in normal rats, continuous infusion by osmotic pump: liver/heart mGPDH activity, heart weight. The data set is classed as in vivo, rat. To be noted: continuous infusion 1 mg/kg/day. The text has this: Efficacy endpoints include serum cholesterol, liver mitochondrial glycerol phosphate dehydrogenase (mGPDH) activity and the expression of relevant liver genes (e.g., the LDL-receptor, apoB, cpt-1, spot14 and apoAI). Safety parameters include heart weight, heart rate, heart mGPDH activity, the expression and key genes involved in cardiac structure and function (e.g., Serca2, HCN2, Kv1.5, MHCα, MHCβ, Alpha1c), and standard plasma chemistry analysis (liver enzymes, electrolytes, creatinine). Endocrine effects are monitored by analysis of serum thyroid stimulating hormone (TSH). [Taylor et al., Mol Pharmacol 52(3): 542-7 (1997); Weitzel et al., Eur Biochem 268(14):4095-4103 (2001)]
Methods: mGPDH activity was analyzed in isolated mitochondria using 2-(4-iodophenyl)-3-(4-nitrophenyl)-5-phenyl tetrazolium chloride as the terminal electron acceptor (Gardner R S, Analytical Biochemistry 59:272 (1974)). Commercially available GPDH was used in each assay as a standard (Sigma, St. Louis, Mo.). Changes in levels of mRNA for liver and heart genes are analyzed using reverse transcriptase followed by real-time PCR analysis. The analysis is performed using an iCycler instrument (Biorad) and appropriate primers by means of standard methodology [e.g., Schwab D A et al. (2000) Life Sciences 66: 1683-94]. The amounts of mRNA are normalized to an internal control, typically, cyclophilin. Serum TSH is measured using an enzyme immunoassay (EIA) kit designed for rat TSH (Amersham Pharmacia Biotech, Arlington Heights, Ill.).
Normal rats (Sprague-Dawley) were maintained on a standard diet. […] The compounds were brought up to an appropriate volume using PBS and BSA to maintain solubility within the pump. The compounds were chemically stable in the excipient at 37° C. for 7 days.
Values are expressed as percent of control. (Table 4)

In data set [4] the test system is cholesterol-fed rat. The experiment in a line: Subacute studies in cholesterol-fed rats, IP once-a-day for seven days: serum cholesterol, heart weight, heart GPDH.
Method: The cholesterol-fed rat is an animal model of hypercholesterolemia generated by feeding the animals a diet with high cholesterol content.
Serum cholesterol values were assessed and the animals randomized into groups for treatment.
For data set [5] the following is noted: animals, e.g., rodent models and monkeys; cited from earlier work.
The test system of data set [6] is cholesterol-fed rat. As to conditions: cited from earlier work.
Data set [7] has as its system Sprague Dawley (SD) rat. The data set can be described thus: Cardiovascular activity of T3 mimetics in the Sprague Dawley rat, oral 7 days. The data set is classed as in vivo. As to conditions: SD rats, p.o. 7 days, Compound 18 1 mg/kg, Compound cis-13-1 1-50 mg/kg/day. The text has this:
Method: […] The control group (n=6) was given vehicle only. […] On the 7th day after the start of dosing, animals were anesthetized with Isoflurane and the left ventricle cannulated with a high fidelity catheter tip transducer via the right carotid artery. Left ventricular pressure, its first derivative (LVdP/dt), lead I ECG, and heart rate (HR) triggered off the ECG waveform, were digitally recorded. LV dP/dt is a well accepted measure of ionotropic state. Systolic and diastolic aortic pressures were measured by retracting the catheter into the proximal aorta.

Data set [8] deals with T1, human thyroid hormone receptors TRβ1 (Homo sapiens, UniProt P10828).
T1 construct: made in house; host or cells: Sf9 insect cells (baculovirus co-infection of TR and RXRα), cell lysate
T1 sequence (P10828 1-461): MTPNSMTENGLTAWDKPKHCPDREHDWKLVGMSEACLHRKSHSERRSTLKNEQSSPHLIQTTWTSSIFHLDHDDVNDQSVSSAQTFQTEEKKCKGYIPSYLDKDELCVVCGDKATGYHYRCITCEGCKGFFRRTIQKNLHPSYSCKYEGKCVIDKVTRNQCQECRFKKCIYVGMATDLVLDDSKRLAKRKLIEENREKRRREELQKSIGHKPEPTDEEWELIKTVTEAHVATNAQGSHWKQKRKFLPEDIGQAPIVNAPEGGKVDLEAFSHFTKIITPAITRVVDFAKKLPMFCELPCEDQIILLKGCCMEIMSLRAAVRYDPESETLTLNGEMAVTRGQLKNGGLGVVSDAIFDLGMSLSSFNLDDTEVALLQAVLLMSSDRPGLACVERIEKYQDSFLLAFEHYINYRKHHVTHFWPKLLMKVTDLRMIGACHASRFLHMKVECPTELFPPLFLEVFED
T1 sequence (P19793 1-462 partner): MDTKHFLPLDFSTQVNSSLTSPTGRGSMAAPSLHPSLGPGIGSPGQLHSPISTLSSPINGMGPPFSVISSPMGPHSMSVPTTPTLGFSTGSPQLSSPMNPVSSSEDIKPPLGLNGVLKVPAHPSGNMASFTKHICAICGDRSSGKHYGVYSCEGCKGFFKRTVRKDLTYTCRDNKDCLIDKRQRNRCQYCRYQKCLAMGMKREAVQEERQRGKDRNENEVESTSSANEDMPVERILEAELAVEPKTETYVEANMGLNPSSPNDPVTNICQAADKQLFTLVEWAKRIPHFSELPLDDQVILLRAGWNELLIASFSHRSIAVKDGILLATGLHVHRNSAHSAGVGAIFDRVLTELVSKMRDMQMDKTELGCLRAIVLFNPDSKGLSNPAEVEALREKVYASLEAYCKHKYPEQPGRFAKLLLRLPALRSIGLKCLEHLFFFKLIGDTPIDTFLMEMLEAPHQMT
The data set can be described thus: Receptor binding, scintillation proximity assay (SPA) with labeled T3; T3 binding also by gel filtration. To be noted: SPA data; read-out: Ki TRβ. As to the method:
(§1) Methods: Baculoviruses expressing TRα1, TRβ1 and RXRα were generated using cDNA and other reagents from Invitrogen (Carlsbad, Calif.). To produce TR/RXR heterodimer proteins, the sf9 insect cells were first grown to a density of 1−5×10^5 cells/mL. TRα1 or TRβ1 and RXRα baculovirus stocks were added to the cell culture with a ratio of 1 to 1 (multiplicity of infection=10). The cells were harvested three days after the infection.
(§2) Binding of compounds to either the TRα1 or TRβ1 were also performed by means of scintillation proximity assays (SPA). The SPA assay, a common method used for the quantitation of receptor-ligand equilibria, makes use of special beads coated with a scintillant and a capture molecule, copper, which binds to the histidine-tagged α or β receptor.

In data set [9] the target is T2, human thyroid hormone receptors TRα1 (Homo sapiens, UniProt P10827).
T2 construct: made in house; host or cells: Sf9 insect cells (baculovirus co-infection of TR and RXRα), cell lysate
T2 sequence (P10827 1-410 isoform P10827-2): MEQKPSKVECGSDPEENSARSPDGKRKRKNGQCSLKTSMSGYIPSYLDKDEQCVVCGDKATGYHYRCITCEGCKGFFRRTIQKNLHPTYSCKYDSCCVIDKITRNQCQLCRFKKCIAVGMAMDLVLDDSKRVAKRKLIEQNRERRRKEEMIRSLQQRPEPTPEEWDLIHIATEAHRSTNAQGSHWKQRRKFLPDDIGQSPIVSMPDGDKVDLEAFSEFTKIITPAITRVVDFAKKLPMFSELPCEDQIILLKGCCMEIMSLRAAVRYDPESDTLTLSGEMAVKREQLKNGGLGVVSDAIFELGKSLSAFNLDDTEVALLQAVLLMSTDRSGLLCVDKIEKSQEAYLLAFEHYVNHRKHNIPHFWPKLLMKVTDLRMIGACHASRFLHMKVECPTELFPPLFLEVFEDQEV
T2 sequence (P19793 1-462 partner): T1 sequence (P19793 1-462 partner)
The data set is described as above. As to conditions: SPA data; read-out: Ki TRα. As to the method:
as §1, §2

In the case of `CC(C)c1cc(Oc2c(Br)cc(CP(=O)(OCOC(=O)C(C)(C)C)OCOC(=O)C(C)(C)C)cc2Br)ccc1O` [Compound 12-5, Di-(pivaloyloxymethyl)[3,5-dibromo-4-(4′-hydroxy-3′-iso-propylphenoxy)benzyl]phosphonate], the cholesterol lowering result in [1] is given as “significant lowering of cholesterol”.

Turning to `N[C@@H](Cc1cc(I)c(Oc2ccc(O)c(I)c2)c(I)c1)C(=O)O` [Compound T3, triiodothyronine], in [2], the “decrease in hepatic triglyceride content” value is 4%. In addition, in data set [3], the “Heart GPDH” value is recorded as 284% of control, the “Heart weight” value is listed as 146% of control and the “Liver GPDH” value is recorded as 406% of control.

Regarding `Cc1cc(OCC(=O)O)cc(C)c1Cc1ccc(O)c(C(C)C)c1` [Compound 17, [3,5-dimethyl-4-(4′-hydroxy-3′-iso-propylbenzyl)phenoxy]acetic Acid], the serum cholesterol result in data set [4] (0.1-1 mg/kg/day, IP once-a-day for seven days) is given as “significantly decreased serum cholesterol”. Besides, in data set [4] (cholesterol-fed rats), the “therapeutic window (separation between cholesterol lowering and cardiac toxicity)” value is “no separation between efficacy (cholesterol lowering) and toxicity”. Moreover, the cardiac hypertrophy entry in data set [4] (cholesterol-fed rats, IP seven days, Compound 17 0.1-1 mg/kg/day, Compound 7 all doses) is on record as “Undesirable cardiac hypertrophy was observed”.

As for `CC(C)c1cc(Oc2c(Cl)cc(CC(=O)O)cc2Cl)ccc1O` [Compound 18, 3,5-dichloro-4-[4′-hydroxy-3′-iso-propylphenoxy]benzeneacetic Acid, reference compound], the weight loss entry in [5] was “result in weight loss in animals”. The “therapeutic index (TI) with respect to heart rate increases” value in data set [6] is recorded as 40. In [7] (vs control), the Heart weight result is “significantly increased” and the “heart weight normalized to body weight” value is “significantly increased”. Also, in data set [7] (vs vehicle), the HR entry is “marked and statistically significant increases”; the “LV dP/dt” value was “marked and statistically significant increases”; the systolic aortic pressure result was “marked and statistically significant increases”.

For `CCOC(=O)[C@H](C)NP(=O)(Cc1cc(Br)c(Oc2ccc(O)c(C(C)C)c2)c(Br)c1)N[C@@H](C)C(=O)OCC` [Compound 15-5, Di-N-(L-1-ethoxycarbonylethylamino)[3,5-dibromo-4-(4′-hydroxy-3′-iso-propylphenoxy)benzyl]phosphonamide], the cholesterol lowering result in data set [1] is given as “significant lowering of cholesterol”.

Consider `CCOP(=O)(Cc1cc(Br)c(Oc2ccc(O)c(C(C)C)c2)c(Br)c1)OCC` [Compound 19-1], for which the change in vivo at 0.5 mg/kg/day in [1] (Rattus norvegicus, po, read-out: % Cholesterol Lowering) is -6.56%.

`Cc1cc(CCP(=O)(O)O)cc(C)c1Cc1ccc(F)c(C(C)C)c1` [Compound 42-2]: the inhibitory constant (Ki) in data set [8] and in data set [9] was more than 2000 nM each time.

Regarding `CC(C)c1cc(Oc2c(Cl)c(F)nc(NCP(=O)(OCOC(=O)C(C)(C)C)OCOC(=O)C(C)(C)C)c2Cl)ccc1O` [Compound 12-9], in data set [1], the “efficacy in lowering cholesterol” value is “not efficiacous”.

For `Cc1cc(OC[P@@]2(=O)OCC[C@@H](c3cccc(Br)c3)O2)cc(C)c1Cc1ccc(O)c(C(C)C)c1` [Compound 13-2-cis, 2-[(3,5-dimethyl-4-(4′-hydroxy-3′-iso-propylbenzyl)phenoxy)methyl]-4-(3-bromophenyl)-2-oxo-2λ^5-[1,3,2]-dioxaphosphonane], in data set [1], the “efficacy in lowering cholesterol” value was “not efficiacous”.
